In patent US20240342168A1, “SMALL MOLECULE INHIBITORS FOR ANTI-CANCER COMBINATION THERAPY” (UNIVERSITY OF CAPE TOWN, priority 2021, published 2024):

Experiments:
[1] = tested on: p53; settings: CRM1 inhibition, other cancers, literature; cited from earlier work
[2] = tested on: cyclin D1, c-Myc and XIAP; test: Western blot of NFκB targets; type: cell-based; settings: single cisplatin treatment
Method: (§1) For protein extraction, cells were washed with PBS and lysed using RIPA buffer (50 mM Tris-CI, pH 7.4, 150 mM NaCl, 1% (w/v) sodium deoxycholate, 0.1% (v/v) SDS, 1% (v/v) Triton X-100, 2 mM EGTA, 2 mM EDTA, 50 mM NaF, 5 mM Na2P2O7, 1× complete protease inhibitor cocktail (Roche) and 0.1 M Sodium Orthovanadate). For PARP cleavage analysis, dead cells were collected by centrifugation and combined with live cell lysates. Lysates were sonicated, centrifuged, and the supernatant quantified using the BCA Protein Assay Kit (Pierce, Thermo Scientific) according to the manufacturer's instructions. Proteins were subjected to Western blot analysis using the following antibodies: rabbit anti-Kpnβ1 (H-300, sc-11,367, Santa Cruz), rabbit anti-β-tubulin (H-235, sc-9104, Santa Cruz), rabbit anti-PARP1/2 antibody (H-250, sc-7150, Santa Cruz), mouse anti-GAPDH (0411, sc-47,724, Santa Cruz), rabbit anti-p21 (H-164, sc-756, Santa Cruz), rabbit anti-Mcl-1 (H-260, sc-20,679, Santa Cruz), mouse anti-cyclin D1 (HD11, sc-246, Santa Cruz), rabbit anti-c-Myc (N-262, sc-764, Santa Cruz), mouse anti-p53 (DO-7, M7001, DakoCytomation), mouse anti-XIAP (610,763, BD Biosciences), and rabbit anti-phospho-Histone H2AX (γH2AX, Ser139, 20E3, #9718, Cell Signal).

[3] = tested on: p53, p21 and Mcl-1 in SiHa cells; test: Western blot of p53 and p53 targets; type: cell-based
Method: as §1

[4] = tested on: p53 reporter activity in SiHa cells; test: p53-luciferase reporter assay; type: cell-based; settings: single cisplatin treatment
Method: (§2) SiHa cells were transfected with 100 ng p65-luciferase reporter construct (containing five copies of the p65-binding site, Promega) or 200 ng p53-luciferase reporter construct (containing thirteen wildtype p53 binding sites, Addgene plasmid #16442, Addgene Plasmid Repository (el-Deiry W S, Tokino T, Velculescu V E, Levy D B, Parsons R, Trent J M, et al. WAF1, a potential mediator of p53 tumor suppression. Cell. 1993; 75(4):817-25) and 10 ng pRL-TK (encoding Renilla luciferase, Promega), using Genecellin transfection reagent (Celtic Molecular Diagnostics). The following day cells were treated with 5 μM INI-43 for 2 h, followed by 30 μM cisplatin for 24 h, and luciferase activity assayed using the Dual-Luciferase Report assay system (Promega), according to the manufacturer's instructions. Luciferase readings were measured using the Veritas™ microplate luminometer (Promega) and normalised to Renilla luciferase from the same extract.

[5] = tested on: p65 reporter activity in SiHa cells; test: p65-luciferase reporter assay; type: cell-based; settings: 30 μM single cisplatin treatment
Method: as §2

[6] = tested on: NFκB-p50 and NFκB-p65 in SiHa cells; test: Nuclear/cytoplasmic fractionation and Western blot; type: cell-based; settings: cisplatin treatment
Method: For protein extraction, cells were washed with PBS and lysed using RIPA buffer (50 mM Tris-CI, pH 7.4, 150 mM NaCl, 1% (w/v) sodium deoxycholate, 0.1% (v/v) SDS, 1% (v/v) Triton X-100, 2 mM EGTA, 2 mM EDTA, 50 mM NaF, 5 mM Na2P2O7, 1× complete protease inhibitor cocktail (Roche) and 0.1 M Sodium Orthovanadate). For PARP cleavage analysis, dead cells were collected by centrifugation and combined with live cell lysates. Lysates were sonicated, centrifuged, and the supernatant quantified using the BCA Protein Assay Kit (Pierce, Thermo Scientific) according to the manufacturer's instructions. […]
For nuclear/cytoplasmic protein extraction, cells were collected by trypsinization. […] The fractions were quantified using the BCA Protein Assay Kit (Pierce, Thermo Scientific) according to the manufacturer's instructions, followed by western blot analysis.

[7] = tested on: SiHa; test: MTT cell viability / cisplatin IC50 determination; type: cell-based
Method: (§3) HeLa, SiHa, CaSki and C33A cell lines were purchased from the American Type Culture Collection (ATCC) and maintained in Dulbecco's Modified Eagle's Medium (DMEM, Gibco, Life Technologies) containing 10% Fetal Bovine Serum (Gibco, Life Technologies), supplemented with 100 U/mL penicillin and 100 μg/mL streptomycin. Cells were cultured at 37° C. in a humidified chamber with 5% CO2. All cell lines were authenticated by DNA profiling using the Cell ID System (Promega, Madison, WI, USA).
(§4) Cells were plated in 96-well plates and subjected to single or CT (2 h INI-43 pre-treatment followed by cisplatin treatment, without removing IN1-43 from the media) for 48 h. Following treatment, MTT (Sigma) was added and 4 h later crystals solubilized using 10% SLS in 0.01 M HCl. Absorbencies were measured at 595 nm and IC50 values determined via plotting [Fa/(1-Fa)] in log scale against log cisplatin concentration, where:
(§5) The half inhibitory concentration was calculated using the formula IC50=10^x-intercept

[8] = tested on: HeLa; test: MTT cell viability / cisplatin IC50 determination; type: cell-based
Method: as §3, §4, §5

[9] = tested on: C33A; test: MTT cell viability / cisplatin IC50 determination; type: cell-based; settings: 48-h treatment, no INI-43 pre-treatment
Method: as §3, §4, §5

[10] = tested on: CaSki; test: MTT cell viability / cisplatin IC50 determination; type: cell-based; settings: 48-h treatment, no INI-43 pre-treatment
Method: as §3, §4, §5

[11] = tested on: NFκB-p50 and NFκB-p65 in SiHa cells; test: Immunofluorescence of NFκB nuclear localization; type: cell-based
Method: SiHa cells were plated on glass coverslips and treated for 24 h before fixation with 4% paraformaldehyde. Cells were permeabilised using 0.5% Triton-X-100/PBS and blocked using 1% BSA/PBST with 0.3 M Glycine. Primary antibody incubations were performed in 1% BSA/PBST, followed by secondary antibody incubation (Cy3 conjugated goat anti-rabbit, Jackson ImmunoResearch). Cell nuclei were counterstained with 0.5 μg/mL DAPI, and images captured using the Zeiss inverted fluorescence microscope under 100× oil immersion.

[12] = single cisplatin treatment at 30 μM and 60 μM
[13] = 48-h treatment, no INI-43 pre-treatment
[14] = Kpnβ1 knock-down (si-Kpnβ1) cells
[15] = control siRNA (si-ctrl) transfected cells

SMILES	effect on p53 stability [1]	levels of cyclin D1 and c-Myc [2]	p53 protein levels ([3]; SiHa, single cisplatin treatment)	Mcl-1 levels [3, 12]	p21 levels [3, 12]	p53 reporter activity [4]	p65 reporter activity [5]	levels of NFκB-p50 and NFκB-p65 in the nucleus [6]	IC50 [7, 13] [µM]	IC50 [7, 14] [µM]	IC50 [7, 15] [µM]	IC50 [8, 13] [µM]	IC50 [8, 14] [µM]	IC50 [8, 15] [µM]	IC50 [9] [µM]	IC50 [10] [µM]	nuclear fluorescence relative to cytoplasmic fluorescence (Fc (Nu/Cy)) ([11]; single cisplatin treatment)	nuclear localization of NFκB-p50 and NFκB-p65 ([11]; single cisplatin treatment (30 μM), 24 h)
COc1cc(-c2ncn(/C=C\C(=O)OC(C)C)n2)cc(C(F)(F)F)c1 [KPT-185]	stabilize p53																	
N.N.[Cl][Pt][Cl] [cisplatin, reference compound]		elevated levels	increased	decreased	decreased	significantly reduced	induced	increased levels	30.8	19.3	30.5	18	9.7	24.4	12.8	18.1	significant increase	stimulated nuclear localization
CCC(=C/[C@H](C)C/C=C/C(C)=C/[C@@H](C)C(=O)[C@@H](C)[C@H](O)[C@@H](C)C/C(C)=C/C(=O)O)/C=C/[C@@H]1OC(=O)C=C[C@@H]1C [leptomycin B]	stabilize p53																	
